Data taken from ChEMBL document CHEMBL1201862, “PubChem BioAssay data set” (2004).
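All cell lines were grown in 96-well plates and treated with compound for 48 hours. GI50 is the concentration that inhibits growth by half.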 Activity calls are given as the source filed them. No stated cut-off is given here; in the data, active = GI50 up to about 1.1 µM and inactive = higher.

Legend:
Assay in all cases: DTP human tumour cell line panel, 48 h
DMS-114 = tested on: DMS-114
HOP-18 = tested on: HOP-18
DLD-1 = tested on: DLD-1
SNB-78 = tested on: SNB-78
DMS-273 = tested on: DMS-273
KM-20L2 = tested on: KM-20L2
LXFL 529 = tested on: LXFL 529
XF498 = tested on: XF498
RXF 631 = tested on: RXF 631

SMILES | GI50 (DMS-114) | GI50 (HOP-18) | GI50 (DLD-1) | GI50 (SNB-78) | GI50 (DMS-273) | GI50 (KM-20L2) | GI50 (LXFL 529) | GI50 (XF498) | GI50 (RXF 631)
CCOc1ccc(C(CN2CCOCC2)C(C)=O)cc1OC (centres undefined) | 15.7 µM (inactive) | 16.2 µM (inactive) | 10.6 µM (inactive) | 20.7 µM (inactive) | 11.3 µM (inactive) | 18.8 µM (inactive) | 4.46 µM (inactive) | 25.3 µM (inactive) | 
CC(=O)Nc1ccc(C(=O)N2N=C(C)/C(=C\c3c(O)ccc4ccccc34)C2=O)cc1 | 54.2 µM (inactive) | 83 µM (inactive) | 30.4 µM (inactive) | > 100 µM (inactive) | > 100 µM (inactive) |  |  | 28.9 µM (inactive) | 
O=S(=O)(N/N=C/c1ccc(/C=N/NS(=O)(=O)c2ccccc2)cc1)c1ccccc1 | 54.8 µM (inactive) | 84.3 µM (inactive) |  | 61.8 µM (inactive) | 46.8 µM (inactive) | > 100 µM (inactive) |  | 68.9 µM (inactive) | 36.4 µM (inactive)
Cc1cccc(NC(=O)c2cc3cc(/N=N/c4ccccc4Cl)ccc3oc2=O)c1 | 22.7 µM (inactive) | 72.9 µM (inactive) | 26.4 µM (inactive) | 59.7 µM (inactive) | 26.9 µM (inactive) | > 100 µM (inactive) | 27.2 µM (inactive) | 24.2 µM (inactive) | 25.1 µM (inactive)
Cc1cc(C)c(C2=NO[C@@H]3C(=O)N(c4ccc(Cc5ccc(N6C(=O)[C@H]7C(c8c(C)cc(C)cc8C)=NO[C@H]7C6=O)cc5)cc4)C(=O)[C@H]23)c(C)c1 | > 100 µM (inactive) | > 100 µM (inactive) | > 100 µM (inactive) | > 100 µM (inactive) | > 100 µM (inactive) | > 100 µM (inactive) | > 100 µM (inactive) | > 100 µM (inactive) | 
CCOP(=O)(OCC)C1C(=O)O[C@H]2CCCC[C@@H]12 (some centres undefined) | > 100 µM (inactive) | 40.6 µM (inactive) | > 100 µM (inactive) | > 100 µM (inactive) | > 100 µM (inactive) | > 100 µM (inactive) | > 100 µM (inactive) | > 100 µM (inactive) | 
Cc1cc(C)n(-c2c(O)ccc(O)c2-n2nc(C)cc2C)n1 | > 100 µM (inactive) |  | > 100 µM (inactive) | > 100 µM (inactive) | > 100 µM (inactive) | > 100 µM (inactive) | > 100 µM (inactive) | > 100 µM (inactive) | > 100 µM (inactive)
CC1=NN(C(=O)Cc2ccccc2)C(=O)/C1=C\c1ccccc1O | > 100 µM (inactive) |  | > 100 µM (inactive) | > 100 µM (inactive) |  | > 100 µM (inactive) | > 100 µM (inactive) | > 100 µM (inactive) | 
CN1CCCc2nc3ccccc3n2C1 | > 100 µM (inactive) | > 100 µM (inactive) | > 100 µM (inactive) | > 100 µM (inactive) | > 100 µM (inactive) | > 100 µM (inactive) | > 100 µM (inactive) | > 100 µM (inactive) | 
CC1=NC=C(O)c2ccccc2O1 | > 100 µM (inactive) |  | > 100 µM (inactive) | > 100 µM (inactive) | > 100 µM (inactive) | > 100 µM (inactive) | > 100 µM (inactive) |  | 
Cn1cc(NC(=O)c2cc(NC(=O)CCCCCCCCCCC(=O)Nc3cc(C(=O)Nc4cc(C(=O)NCCC(=N)N)n(C)c4)n(C)c3)cn2C)cc1C(=O)NCCC(=N)N |  | 15.2 µM (inactive) | 27.9 µM (inactive) | 46.7 µM (inactive) | 28.2 µM (inactive) | 27 µM (inactive) | 16.9 µM (inactive) | > 100 µM (inactive) | 
CC1=CC(N2C(=O)C(C)=CC2O)NC1=O (centres undefined) |  | < 0.01 µM (active) | > 100 µM (inactive) | > 100 µM (inactive) |  | > 100 µM (inactive) | > 100 µM (inactive) |  | 
Cc1cc(N(CCC#N)CCC#N)ccc1/C=C1/CN(N2C(=O)/C(=C/c3ccc(N(CCC#N)CCC#N)cc3C)N=C2c2ccccc2)C(c2ccccc2)=N1 | > 100 µM (inactive) | > 100 µM (inactive) | > 100 µM (inactive) | 32.1 µM (inactive) | > 100 µM (inactive) | > 100 µM (inactive) | 63.5 µM (inactive) | 36 µM (inactive) | 
O=c1/c(=C/c2ccccc2O)sc2nc3ccccc3n12 | 19.7 µM (inactive) |  | 29.9 µM (inactive) | 43.2 µM (inactive) | 82.4 µM (inactive) | 84.1 µM (inactive) | 31.3 µM (inactive) |  | 43.7 µM (inactive)
CN1c2ccccc2N(C(=O)c2ccc(Cl)cc2)C(CC(=O)O)c2cccn21 (centres undefined) | > 100 µM (inactive) |  | > 100 µM (inactive) | > 100 µM (inactive) | > 100 µM (inactive) | > 100 µM (inactive) | > 100 µM (inactive) | > 100 µM (inactive) | 
O=c1nc(/C=C/c2ccccc2Cl)cc2n1CCN2CCO | 24.8 µM (inactive) |  | > 100 µM (inactive) |  |  |  | 55.1 µM (inactive) |  | 
CCC(=O)C(C)C(=O)C(=O)C(=O)OC (centres undefined) | > 82.8 µM (inactive) | > 100 µM (inactive) | > 100 µM (inactive) | > 100 µM (inactive) | > 100 µM (inactive) | > 100 µM (inactive) | > 100 µM (inactive) | > 100 µM (inactive) | > 100 µM (inactive)
COc1nc2c(nc(N)n2C2OCC(O)C(O)C2O)c(=O)n1C (centres undefined) | > 100 µM (inactive) | > 100 µM (inactive) | > 100 µM (inactive) | > 100 µM (inactive) |  | > 100 µM (inactive) | > 100 µM (inactive) | 41.8 µM (inactive) | 
CCCOc1ccc(/C(Cl)=C(\C=O)c2ccc(OC)c(OC)c2)cc1OCCC | 3.07 µM (inactive) | > 100 µM (inactive) | 5.71 µM (inactive) | 6.07 µM (inactive) | 3.72 µM (inactive) | 89.7 µM (inactive) | 5.74 µM (inactive) | 6.93 µM (inactive) | 
COC1C(OC(=O)/C=C/C=C/C=C/C=C/C(=O)O)CCC2(CO2)C1C1(C)OC1CC=C(C)C (centres undefined) | 19.9 µM (inactive) | 23.4 µM (inactive) | 26.7 µM (inactive) | 51.8 µM (inactive) | 32.2 µM (inactive) | 32.1 µM (inactive) |  | 30.8 µM (inactive) | 
COC(=O)CCSC(=O)Nc1ccc(/N=N/c2ccccc2)cc1 | 53.7 µM (inactive) | > 100 µM (inactive) | 52.5 µM (inactive) | > 100 µM (inactive) | 62.7 µM (inactive) | 22.7 µM (inactive) | 36.6 µM (inactive) | 37.5 µM (inactive) | 67.3 µM (inactive)
Brc1ccc2ns[s+]c2c1 | 3.14 µM (inactive) | > 47 µM (inactive) |  | > 31.6 µM (inactive) | 1.95 µM (inactive) | 0.933 µM (active) | 0.404 µM (active) | > 100 µM (inactive) | 5.06 µM (inactive)
CC1(C)OC2C(=O)OC(COCc3ccccc3)C2O1 (centres undefined) |  | > 100 µM (inactive) | > 100 µM (inactive) | > 100 µM (inactive) | > 100 µM (inactive) | > 100 µM (inactive) | > 100 µM (inactive) |  | > 100 µM (inactive)
Cc1cc(CC(=O)NCCO)n(CCO)c(=O)c1 | > 100 µM (inactive) | > 100 µM (inactive) | > 100 µM (inactive) | > 100 µM (inactive) | > 100 µM (inactive) |  | > 100 µM (inactive) | > 100 µM (inactive) | > 100 µM (inactive)
